In PubChem BioAssay AID330 (DTP/NCI, 2004):
“And” between values parts separate entries of the source, which are not always exact repeats. Identical values can stand only once. Toxic doses and inconclusive results are not listed.

System: P388 leukemia ip, CD2F1 mice, survival T/C
Experiment: NCI In Vivo Anticancer Drug Screen. Data for tumor model P388 Leukemia (intraperitoneal) in CD2F1 (CDF1) mice
Conditions: endpoint: median survival time, higher = longer survival
Procedure, shortened: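 Mice carrying the transplanted tumor received test compound or vehicle. Survival was recorded in each group, and the value is the treated-group measurement divided by that of the vehicle-treated control group.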

[1] = dose: 50.0 mg/kg/injection, schedule: Q01DX005 (ip), vehicle: Klucel (hydroxypropylcellulose) (HPC)
[2] = dose: 100.0 mg/kg/injection, schedule: Q01DX005 (ip), vehicle: Klucel (hydroxypropylcellulose) (HPC)
[3] = dose: 200.0 mg/kg/injection, schedule: Q01DX005 (ip), vehicle: Klucel (hydroxypropylcellulose) (HPC)
[4] = dose: 100.0 mg/kg/injection, schedule: Q04DX002 (ip), vehicle: saline with Tween-80
[5] = dose: 200.0 mg/kg/injection, schedule: Q04DX002 (ip), vehicle: saline with Tween-80
[6] = dose: 6.25 mg/kg/injection, schedule: Q01DX009 (ip), vehicle: saline
[7] = dose: 12.5 mg/kg/injection, schedule: Q01DX009 (ip), vehicle: saline
[8] = dose: 50.0 mg/kg/injection, schedule: Q01DX009 (ip), vehicle: saline
[9] = dose: 100.0 mg/kg/injection, schedule: Q01DX009 (ip), vehicle: saline
[10] = dose: 100.0 mg/kg/injection, schedule: Q01DX009 (ip), vehicle: saline with Tween-80
[11] = dose: 200.0 mg/kg/injection, schedule: Q01DX009 (ip), vehicle: saline with Tween-80
[12] = dose: 60.0 mg/kg/injection, schedule: Q01DX005 (ip), vehicle: saline
[13] = dose: 50.0 mg/kg/injection, schedule: Q01DX009 (ip), vehicle: saline with Tween-80
[14] = dose: 50.0 mg/kg/injection, schedule: Q01DX009 (ip), vehicle: Klucel (hydroxypropylcellulose) (HPC)
[15] = dose: 100.0 mg/kg/injection, schedule: Q01DX009 (ip), vehicle: Klucel (hydroxypropylcellulose) (HPC)
[16] = dose: 200.0 mg/kg/injection, schedule: Q01DX009 (ip), vehicle: Klucel (hydroxypropylcellulose) (HPC)
[17] = dose: 60.0 mg/kg/injection, schedule: Q01DX005 (ip), vehicle: saline with Tween-80
[18] = dose: 120.0 mg/kg/injection, schedule: Q01DX005 (ip), vehicle: saline with Tween-80
[19] = dose: 240.0 mg/kg/injection, schedule: Q01DX005 (ip), vehicle: saline with Tween-80
[20] = dose: 50.0 mg/kg/injection, schedule: Q01DX005 (ip), vehicle: saline with Tween-80
[21] = dose: 100.0 mg/kg/injection, schedule: Q01DX005 (ip), vehicle: saline with Tween-80
[22] = dose: 200.0 mg/kg/injection, schedule: Q01DX005 (ip), vehicle: saline with Tween-80

## O=C1N=c2ccccc2=C1c1sc(=O)n(Cc2nc3ccccc3[nH]2)c1O
[1]
  T/C: 102 % of control
[2]
  T/C: 97 % of control
[3]
  T/C: 93 % of control

## CN1C(=O)c2ccccc2N(C)C12CCN(Cc1ccccc1)CC2
dose: 50.0 mg/kg/injection, schedule: Q01DX005 (ip), vehicle: distilled water + alcohol
  T/C: 103 % of control
dose: 100.0 mg/kg/injection, schedule: Q01DX005 (ip), vehicle: distilled water + alcohol
  T/C: 100 % of control
dose: 200.0 mg/kg/injection, schedule: Q01DX005 (ip), vehicle: distilled water + alcohol
  T/C: 97 % of control

## Cc1c2c[n+]([O-])ccc2c(C)c2c1c1ccccc1n2C
dose: 12.5 mg/kg/injection, schedule: Q04DX002 (ip), vehicle: saline with Tween-80
  T/C: 101 % of control
dose: 25.0 mg/kg/injection, schedule: Q04DX002 (ip), vehicle: saline with Tween-80
  T/C: 101 % of control
dose: 50.0 mg/kg/injection, schedule: Q04DX002 (ip), vehicle: saline with Tween-80
  T/C: 103 % of control
[4]
  T/C: 107 % of control
[5]
  T/C: 113 % of control

## O=S(=O)(O)O.[Cu+2].[NH2-].[NH2-].[NH2-].[NH2-]
dose: 5.0 mg/kg/injection, schedule: Q04DX002 (ip), vehicle: saline
  T/C: 99 % of control
[6]
  T/C: 86 % of control
[7]
  T/C: 93 % of control

## O=C(CCl)NC(Cc1ccccc1F)C(=O)O (stereo not drawn)
[8]
  T/C: 106 % of control
[9]
  T/C: 102 % of control
dose: 200.0 mg/kg/injection, schedule: Q01DX009 (ip), vehicle: saline
  T/C: 101 % of control

## Nc1nc(N)nc(NC(=O)COc2cc(Cl)c(Cl)cc2Cl)n1
[10]
  T/C: 95 % of control
[11]
  T/C: 90 % of control
dose: 400.0 mg/kg/injection, schedule: Q01DX009 (ip), vehicle: saline with Tween-80
  T/C: 100 % of control

## O=C1OCN2C(=O)CCC12 (stereo not drawn)
[12]
  T/C: 109 % of control
dose: 120.0 mg/kg/injection, schedule: Q01DX005 (ip), vehicle: saline
  T/C: 97 % of control
dose: 240.0 mg/kg/injection, schedule: Q01DX005 (ip), vehicle: saline
  T/C: 86 % of control

## Cc1ccc(S(=O)(=O)c2cnc(N3CCN(C)CC3)nc2N)cc1
dose: 100.0 mg/kg/injection, schedule: Q04DX002 (ip), vehicle: saline
  T/C: 100 % of control
dose: 200.0 mg/kg/injection, schedule: Q04DX002 (ip), vehicle: saline
  T/C: 100 % of control
dose: 400.0 mg/kg/injection, schedule: Q04DX002 (ip), vehicle: saline
  T/C: 93 % of control

## CC(=O)CC(=O)CCCCCCCCCCCC(=O)O
[13]
  T/C: 94 % of control
[10]
  T/C: 98 % of control
[11]
  T/C: 103 % of control

## COc1nc(Nc2cccc(F)c2)nc(OC)n1
[14]
  T/C: 98 % of control
[15]
  T/C: 95 % of control
[16]
  T/C: 101 % of control

## CCN(CC)C(Cl)=Nc1ccc(Cl)cc1
[14]
  T/C: 94 % of control
[15]
  T/C: 100 % of control
[16]
  T/C: 94 % of control

## N#Cc1c(=O)[nH]c(=O)n2c1[nH]c1ccccc12
dose: 15.0 mg/kg/injection, schedule: Q01DX005 (ip), vehicle: saline with Tween-80
  T/C: 102 % of control
dose: 30.0 mg/kg/injection, schedule: Q01DX005 (ip), vehicle: saline with Tween-80
  T/C: 104 % of control
[17]
  T/C: 105 % of control and 88 % of control

## CC(CCCN(CCCl)CCCl)Nc1ccnc2cc(Cl)ccc12 (stereo not drawn)
dose: 0.12 mg/kg/injection, schedule: Q01DX009 (ip), vehicle: saline + alcohol
  T/C: 100 % of control
dose: 0.5 mg/kg/injection, schedule: Q01DX009 (ip), vehicle: saline sonified
  T/C: 155 % of control
dose: 0.66 mg/kg/injection, schedule: Q01DX009 (ip), vehicle: saline
  T/C: 159 % of control
dose: 1.0 mg/kg/injection, schedule: Q01DX009 (ip), vehicle: saline sonified
  T/C: 155 % of control
dose: 1.5 mg/kg/injection, schedule: Q01DX009 (ip), vehicle: saline
  T/C: 159 % of control
dose: 2.0 mg/kg/injection, schedule: Q01DX009 (ip), vehicle: saline sonified
  T/C: 105 % of control

## NCCn1[nH]c(=O)c2ccncc2c1=O
[4]
  T/C: 94 % of control
[5]
  T/C: 92 % of control
dose: 400.0 mg/kg/injection, schedule: Q04DX002 (ip), vehicle: saline with Tween-80
  T/C: 92 % of control

## COC(=O)c1c(-c2ccccc2)c(-c2ccccc2)[nH]c(=O)c1C#N
[17]
  T/C: 108 % of control
[18]
  T/C: 100 % of control
[19]
  T/C: 91 % of control

## Cc1nc2ccccc2c2c(N)cccc12
dose: 25.0 mg/kg/injection, schedule: Q01DX005 (ip), vehicle: Klucel (hydroxypropylcellulose) (HPC)
  T/C: 105 % of control
[1]
  T/C: 102 % of control
[2]
  T/C: 98 % of control
[3]
  T/C: 105 % of control

## O=C(Nc1cc(-c2ccccc2)nn1-c1ccccc1)c1ccccc1F
[17]
  T/C: 103 % of control
[18]
  T/C: 103 % of control
[19]
  T/C: 111 % of control

## O=NNc1ccc([N+](=O)[O-])cn1
dose: 3.12 mg/kg/injection, schedule: Q01DX009 (ip), vehicle: water
  T/C: 107 % of control
[6]
  T/C: 106 % of control and 96 % of control
dose: 6.25 mg/kg/injection, schedule: Q01DX009 (ip), vehicle: water
  T/C: 96 % of control
[7]
  T/C: 122 % of control and 123 % of control
dose: 12.5 mg/kg/injection, schedule: Q01DX009 (ip), vehicle: water
  T/C: 102 % of control
dose: 25.0 mg/kg/injection, schedule: Q01DX009 (ip), vehicle: water
  T/C: 105 % of control and 88 % of control
[8]
  T/C: 176 % of control

## CCOP(=O)(Nc1ccc2c(c1)Cc1c-2cc(Cl)c(NC(C)=O)c1Cl)OCC
[1]
  T/C: 95 % of control
[2]
  T/C: 97 % of control
[3]
  T/C: 97 % of control

## Cc1cc(=O)c2ccccc2s1
[13]
  T/C: 104 % of control
[10]
  T/C: 113 % of control

## O=C(c1ccccc1[N+](=O)[O-])C1OC1c1ccccc1 (stereo not drawn)
[1]
  T/C: 102 % of control
[2]
  T/C: 99 % of control
[3]
  T/C: 96 % of control

## O=C(Nc1cccc2ccccc12)NN1C(=O)CSC1=S
[13]
  T/C: 90 % of control
[10]
  T/C: 93 % of control
[11]
  T/C: 91 % of control

## C/C(N=NC(=S)N1CC(C)OC(C)C1)=C1\C=CC=CN1O (stereo not drawn)
[20]
  T/C: 111 % of control
[21]
  T/C: 104 % of control
[22]
  T/C: 106 % of control

## CCOC(=O)Cn1ncnn1
dose: 100.0 mg/kg/injection, schedule: Q04DX003 (ip), vehicle: Klucel (hydroxypropylcellulose) (HPC)
  T/C: 103 % of control
dose: 200.0 mg/kg/injection, schedule: Q04DX003 (ip), vehicle: Klucel (hydroxypropylcellulose) (HPC)
  T/C: 100 % of control
dose: 400.0 mg/kg/injection, schedule: Q04DX003 (ip), vehicle: Klucel (hydroxypropylcellulose) (HPC)
  T/C: 102 % of control

## COC(=O)c1c(C(=O)OC)c(-c2cccc(Cl)c2)n2c1CCC2
dose: 25.0 mg/kg/injection, schedule: Q01DX005 (ip), vehicle: saline with Tween-80
  T/C: 98 % of control
[20]
  T/C: 100 % of control
[21]
  T/C: 100 % of control and 93 % of control
[22]
  T/C: 100 % of control

## O=C(NCCNC(=O)Nc1ccccc1S(=O)(=O)F)Nc1ccccc1S(=O)(=O)F
[13]
  T/C: 96 % of control
[10]
  T/C: 97 % of control
[11]
  T/C: 93 % of control

## O=[N+]([O-])c1cccc(Cl)c1C(Nc1nncs1)Nc1nncs1
dose: 60.0 mg/kg/injection, schedule: Q01DX005 (ip), vehicle: Klucel (hydroxypropylcellulose) (HPC)
  T/C: 96 % of control
dose: 120.0 mg/kg/injection, schedule: Q01DX005 (ip), vehicle: Klucel (hydroxypropylcellulose) (HPC)
  T/C: 106 % of control
dose: 240.0 mg/kg/injection, schedule: Q01DX005 (ip), vehicle: Klucel (hydroxypropylcellulose) (HPC)
  T/C: 118 % of control

## CCO/C=C\Br
[17]
  T/C: 105 % of control
[18]
  T/C: 99 % of control
[19]
  T/C: 100 % of control

## CC(=O)Nc1ccc(S(=O)(=O)N/N=c2/sc3ccccc3n2C)cc1
[17]
  T/C: 100 % of control
[18]
  T/C: 92 % of control
[19]
  T/C: 95 % of control

## CCCCCCCCCCCCCCC(C(=O)[O-])[n+]1ccccc1 (stereo not drawn)
dose: 15.0 mg/kg/injection, schedule: Q01DX005 (ip), vehicle: saline
  T/C: 114 % of control
dose: 30.0 mg/kg/injection, schedule: Q01DX005 (ip), vehicle: saline
  T/C: 96 % of control
[12]
  T/C: 110 % of control

## CCC[CH2][Sn]([CH2]CCC)([CH2]CCC)[CH2]S(=O)(=O)O
[6]
  T/C: 108 % of control
[7]
  T/C: 119 % of control
[9]
  T/C: 116 % of control
